# Reference: patent US20220387552A1, “METHODS OF MODULATING HAIR FOLLICLE STEM CELL QUIESCENCE BY MODULATING DERMAL NICHE ACTIVATOR GAS6” (President and Fellows of Harvard College, priority 2019, published 2022)
# Entries after “also recorded” stand apart in the source; their conditions may differ.
# B1: Gas6: recombinant mouse Gas6 protein (R&D systems, Cat #8310-GS); gamma-carboxyglutamic acid-containing secreted protein, AXL ligand (protein, UniProt Q61592 28-674, looked up)
# Growth arrest-specific …: VLLRAREAAQFLRPRQRRAYQVFEEAKQGHLERECVEEVCSKEEAREVFENDPETEYFYPRYQECMRKYGRPEEKNPDFAKCVQNLPDQCTPNPCDKKGTHICQDLMGNFFCVCTDGWGGRLCDKDVNECVQKNGGCSQVCHNKPGSFQCACHSGFSLASDGQTCQDIDECTDSDTCGDARCKNLPGSYSCLCDEGYTYSSKEKTCQDVDECQQDRCEQTCVNSPGSYTCHCDGRGGLKLSPDMDTCEDILPCVPFSMAKSVKSLYLGRMFSGTPVIRLRFKRLQPTRLLAEFDFRTFDPEGVLFFAGGRSDSTWIVLGLRAGRLELQLRYNGVGRITSSGPTINHGMWQTISVEELERNLVIKVNKDAVMKIAVAGELFQLERGLYHLNLTVGGIPFKESELVQPINPRLDGCMRSWNWLNGEDSAIQETVKANTKMQCFSVTERGSFFPGNGFATYRLNYTRTSLDVGTETTWEVKVVARIRPATDTGVLLALVGDDDVVPISVALVDYHSTKKLKKQLVVLAVEDVALALMEIKVCDSQEHTVTVSLREGEATLEVDGTKGQSEVSTAQLQERLDTLKTHLQGSVHTYVGGLPEVSVISAPVTAFYRGCMTLEVNGKILDLDTASYKHSDITSHSCPPVEHATP
# Tests used:
# [1] = tested on: ADX mice; assay: Hair cycle progression of ADX mice treated topically with R428; type: in vivo; details: R428 2 mM in ethanol, topical once a day, back skin of ADX mice
# Protocol: (§1) C57BL/6J mice were anesthetized. Small incisions were made on the back skin right on top of each adrenal gland. Both adrenal glands were removed with a pair of curved forceps. Sham-operated mice (Sham) underwent the same procedures as the ADX mice, except their adrenal glands were not removed.
# RU486 (TCI America, Cat #M1732; 4% in ethanol) was used to induce K15-CrePGR by topical application for 10-14 days. To induce Pdgfra-CreER and Sox2-CreER, tamoxifen (Millipore Sigma, T5648; 20 mg/kg) was injected into mice intraperitoneally once per day for 4 to 6 days. To inhibit AXL activity, R428 (APExBIO, A8329; 2 mM in ethanol) was applied to ADX mice topically once a day. EdU (Lumiprobe Corporation, Cat #10540; 25 mg/kg) were administered by intraperitoneal injections. AAVs were produced as described previously^46 and injected directly into dermis through intradermal injections. 2-month-old C57BL/6J mice were injected with AAV-GFP or AAV-Gas6 (1×10^11 genome copy number per animal).
# The hair cycle progression was documented by standardized photographs at the start of each experiment and weekly thereafter. Anagen was determined by darkening of the skin followed by hair growth as previously described^75. The back skin of mice was shaved with an electric clipper to reveal skin colour changes and hair coat recovery. […] Telogen length was quantified as described previously^19.
# [2] = tested on: FACS-purified HFSCs; assay: Colony formation assay of cultured HFSCs; type: cell-based, mouse
# Protocol: For the isolation of HFSCs, mouse dorsal skin was dissected, and the fat layer was removed using a surgical scalpel. The skin was incubated in trypsin-EDTA at 37° C. for 35-45 min on an orbital shaker. Single-cell suspension was obtained by scraping the epidermal side and filtering. Cells were centrifuged for 8 min at 350 g at 4° C., resuspended in 5% fetal bovine serum, and stained for 30-40 min. The following antibodies were used: CD49f (Integrin alpha 6)-PE (eBioscience, 12-0495-82; 1:500); CD34-eFlour660 (eBioscience, 50-0341-82; 1:100); Sca-1-PerCP-Cy5.5 (eBioscience, 45-5981-82; 1:1000); and CD45-eFlour450 (eBioscience, 48-0451-82; 1:250). The HFSCs were isolated as CD45^−, Integrin alpha 6^+, CD34^+, Sca-1^− cells.
# FACS-purified HFSCs were plated on mitomycin C (P212121, Cat #M92010)-treated J2 fibroblast feeders at a density of 10,000 cells/well of 12-well plates, in E media supplemented with 15% (v/v) serum and 0.3 mM calcium as described in previous studies^78,79. For Gas6-treatment, E medium was supplemented with recombinant mouse Gas6 protein (R&D systems, Cat #8310-GS) at 500 ng/ml. For R428-treatment experiments, E medium was supplemented with R428 (APExBIO, Cat #A8329) at 1 μM. Cells were fixed and stained with 1% (wt/vol) Rhodamine B (Millipore Sigma, R6626). Colony diameter was measured from scanned images of plates using Image J.
# [3] = tested on: ADX mice; assay: Hair cycle progression of ADX mice fed corticosterone in drinking water; type: in vivo; details: 35 μg/ml corticosterone in drinking water
# Protocol: as §1
# The hair cycle progression was documented by standardized photographs at the start of each experiment and weekly thereafter. Anagen was determined by darkening of the skin followed by hair growth as previously described^75. The back skin of mice was shaved with an electric clipper to reveal skin colour changes and hair coat recovery. Once the hair coat recovery reached ˜90% of the back skin, the mice were shaved again to monitor the entry into next anagen. Telogen length was quantified as described previously^19.
# Control animals received the vehicle water.
# [4] = tested on: C57BL/6 mice; assay: Hair cycle progression of C57BL/6 mice under chronic corticosterone feeding; type: in vivo; details: wild-type mice, supplemental corticosterone in drinking water from second telogen; vehicle mice entered anagen around P90-P100
# Protocol: The hair cycle progression was documented by standardized photographs at the start of each experiment and weekly thereafter. Anagen was determined by darkening of the skin followed by hair growth as previously described^75. The back skin of mice was shaved with an electric clipper to reveal skin colour changes and hair coat recovery. Once the hair coat recovery reached ˜90% of the back skin, the mice were shaved again to monitor the entry into next anagen. Telogen length was quantified as described previously^19. 35 μg/ml Corticosterone (Millipore Sigma, C2505) was dissolved in vehicle (0.45% hydroxypropyl-β-cyclodextrine in drinking water) in drinking water during the entire corticosterone feeding period. Corticosterone water was changed every 3 days to prevent degradation. Control animals received the vehicle water.
# [5] = tested on: hair follicle; details: corticosterone feeding mice
# Protocol: 35 μg/ml Corticosterone (Millipore Sigma, C2505) was dissolved in vehicle (0.45% hydroxypropyl-β-cyclodextrine in drinking water) in drinking water during the entire corticosterone feeding period. Corticosterone water was changed every 3 days to prevent degradation. Control animals received the vehicle water.
# The skin samples were fixed in 4% paraformaldehyde (PFA, Electron Microscopy Sciences, Cat #15713) for 15 min at room temperature, washed in phosphate buffered saline (PBS), immersed in 30% sucrose solution overnight at 4° C., and embedded in optimal cutting temperature compound (Sakura Finetek, Cat #4583). 35 μm thick sections were fixed in 4% PFA. The fixed slides were then blocked in blocking buffer (5% Donkey serum, 1% bovine serum albumin, 2% cold-water fish gelatin in 0.3% Triton X-100 in PBS) for 1 h at room temperature, incubated with primary antibodies overnight at 4° C., and incubated with secondary antibodies for 2-4 h at room temperature. The following antibodies and dilutions were used: CD34 (eBioscience, 14-0341-85, 1:100), P-Cadherin (R&D Systems, AF761, 1:400), GFP (Abcam, ab290, 1:5000) and Cleaved Caspase-3 (Cell Signaling Technology, 1:300). DAPI was used as a counterstain for the nucleus.
# [6] = Plasma corticosterone levels by ELISA after corticosterone feeding; type: in vivo, mice
# Protocol: 35 μg/ml Corticosterone (Millipore Sigma, C2505) was dissolved in vehicle (0.45% hydroxypropyl-β-cyclodextrine in drinking water) in drinking water during the entire corticosterone feeding period. Corticosterone water was changed every 3 days to prevent degradation. Control animals received the vehicle water. Blood corticosterone levels were measured by ELISA (ARBOR assays, [MUT]-H1) according to the manufacturer's instruction. Serum was collected using the heparinized tubes (Microvette® CB 300 LH or Microvette® 300 LH, Sarstedt) between 10 a.m. and 12 p.m.
molecule,measurement,setting,value
Nc1nc(Nc2ccc3c(c2)CC[C@@H](N2CCCC2)CC3)nn1-c1cc2c(nn1)-c1ccccc1CCC2 [R428],anagen entry / hair growth (hair cycle progression),[1],suppressed their precocious anagen entry; also recorded: repress the phenotypes of ADX; also recorded: inhibit hair growth
same,HFSC colony formation,[2]; R428 at 1 μM in E medium,inhibited HFSC colony formation
C[C@]12C[C@H](O)[C@H]3[C@@H](CCC4=CC(=O)CC[C@@]43C)[C@@H]1CC[C@@H]2C(=O)CO [corticosterone],HFSC activation / quiescence (hair cycle progression),[3],effectively suppressed the aberrant activation of HFSCs; also recorded: suppress the loss of HFSC quiescence of ADX mice
same,anagen entry (hair cycle progression),[4],stayed in telogen
same,abnormal cell death in hair follicle (aCAS3),[5],does not display abnormal cell death
same,plasma corticosterone levels,"[6]; ADX mice, corticosterone in drinking water",restored
same,corticosterone levels in the circulation,"[6]; wild-type mice, supplemental corticosterone in drinking water",enhanced corticosterone levels in the circulation
B1,HFSC colony formation,[2]; recombinant mouse Gas6 protein at 500 ng/ml in E medium,formed more colonies
